A short description of data set [1]: Long-term toxicity experiment (28 days) in rats. The data set is classed as in vivo. How it is done:
(§1) Experiment Animals: rats, male, 6-8 weeks of age, body weight: 180-250 g; dogs, male, about 24 months, body weight: 7-10 kg.
(§2) Preparation of sample: in rat's experiments the mixed formulation powder of the compound Ie was formulated into 0.1, 0.3 and 1 mg/mL homogeneous suspension for use; administration route: oral administration; […]. In dog's experiments the tablets of compound Ie were fed to dogs. […].
(§3) Sample collection: blood was collected at the time points of 1, 10, 20 and 28 days respectively, about 120-200 μL whole blood was collected from 3 animals at each time point. Blood was collected at 1 h, 4 h, 8 h and 24 h after administration.
(§4) Sample analysis: the collected samples were detected by LC-MS/MS, and the instrument model was SHIMADZU20 A-API4000.
(§5) Pharmacokinetic data analysis: the obtained plasma concentration data were fitted and calculated using WinNolin according to non-compartment model.

Data set [2] can be described thus: Long-term toxicity experiment (28 days) in dogs. It counts as in vivo. The conditions noted are these: dogs, 5 mg/kg, 28 days; reaction of Afatinib group greater than compound Ie group. Here is the method:
as §1, §2, §3, §4, §5

The subject of the next data set is A549. Nature of the data set: Inhibition of tumor cells, MTS method. Conditions: Homo sapiens, 72 hours. The data set is classed as cell-based. How it is done: (§6) (1) Compounds: in vitro studies the test compounds was dissolved in 100% DMSO and diluted until the final concentration of DMSO was 0.1%. The 0.1% (v/v) DMSO was added into culture medium as solvent control. 9 concentration gradients were tested and each gradient was repeated twice. (2) Tumor cell lines: the tumor cell lines were cultivated in RPMI10 culture medium containing 10% fetal calf serum in incubator at 37° C. in a 5% CO2 air incubator. The tested tumor cell lines were: BT474, MDA-MB-231, SK-Br-3, A431, H292, H1975, HCC827, A549, H1650 and H1734. (3) MTS method: cells were seeded into 96-well plate to give a density of about 3000 cells per well, and incubated overnight in a humidified incubator at 37° C. In the next day, the test compounds were added to the wells and further incubated for 72 hours. The cell activity was detected using MTS. IC50 was calculated (the concentration of a compound that is required for 50% inhibition of the cell growth versus the DMSO control group, using nonlinear regression analysis of software GraphPad Prism). […] In a 96-well plate, each test compound was tested at 9 dosage concentrations and each dosage was made in triplicate. Samples were added in 100 μL/well. Cell control and negative control wells contained diluents instead of compounds. Except the negative control well, 100 μL cell suspension of complete medium was added into each test well, wherein corresponding cell numbers were included to assure that the cells in cell control well just cover the bottom of the well as the required incubation time was reached. The plate was incubated in a CO2 incubator at 37° C. for 48 hours. The liquid in test wells was removed by pipetting. 100 μL CCK-8 (Cell counting Kit-8, purchased from DOJINDO Molecular Technologies) detection liquid (containing 10% CCK-8, 5% FBS corresponding medium) was added into each test well, then the plate was incubated in a CO2 incubator under at 37° C. for 3 hours. OD value was detected by ELIASA at A450 nm. Cell viability percentage (%)=(O.D. test compound-O.D. blank)/(O.D. control-O.D. blank)×100. Mean value was calculated for each 3 repeated wells, and IC50 was calculated using nonlinear regression (fitted curve) data analysis method.
On the technique in general: Tetrazolium dyes change colour on reduction, which living cells bring about.

In the next data set the test system is MDA-MB-231. Nature of the data set: Inhibition of tumor cells, MTS method. The data set is classed as cell-based. The conditions noted are these: Homo sapiens, 72 hours. Here is the method:
as §6

The test system of the next data set is H1975. Nature of the data set: Inhibition of tumor cells, MTS method. Conditions: Homo sapiens, NCI-H1975, 72 hours. The data set is classed as cell-based. Here is the method: as §6
A further data set deals with H1734. Nature of the data set: Inhibition of tumor cells, MTS method. The data set is classed as cell-based. Conditions: Homo sapiens, NCI-H1734, 72 hours. Here is the method:
as §6

A further data set concerns SK-Br-3. Nature of the data set: Inhibition of tumor cells, MTS method. The data set is classed as cell-based. Conditions: Homo sapiens, 72 hours. How it is done: as §6
A further data set has as its system H292. Nature of the data set: Inhibition of tumor cells, MTS method. The data set is classed as cell-based. The conditions noted are these: Homo sapiens, NCI-H292, 72 hours. How it is done: as §6
The subject of another data set is BT474. Nature of the data set: Inhibition of tumor cells, MTS method. The data set is classed as cell-based. The conditions noted are these: Homo sapiens, BT-474, 72 hours. How it is done: as §6
The test system of a further data set is H1650. Nature of the data set: Inhibition of tumor cells, MTS method. It counts as cell-based. The conditions noted are these: Homo sapiens, NCI-H1650, 72 hours. Here is the method:
as §6

The next data set relates to A431. Nature of the data set: Inhibition of tumor cells, MTS method. It counts as cell-based. Conditions: Homo sapiens, A-431, 72 hours. Here is the method:
as §6

The next data set deals with HCC827. Nature of the data set: Inhibition of tumor cells, MTS method. It counts as cell-based. Conditions: Homo sapiens, 72 hours. How it is done: as §6
The next data set has as its target EGFR (Homo sapiens, UniProt P00533). Nature of the data set: Caliper Mobility Shift Assay, inhibition of EGFR kinase activity. It counts as biochemical.
Another data set concerns the target HER2 (Homo sapiens, UniProt P04626). Nature of the data set: Caliper Mobility Shift Assay, inhibition of HER2 kinase activity. The data set is classed as biochemical.
Data set [3] in a line: Pharmacokinetic experiments in CD-1 mice. The conditions noted are these: male, mouse, plasma; for half-life: read-out: Terminal t1/2 (converted); for Vd: read-out: Vss. It counts as in vivo. How it is done:
Experiment animals: CD-1 mice, male, 6-7 weeks of age; body weight: 20-25 g; Preparation of samples: the test compounds respectively were formulated to 0.2 mg/mL (for intravenous administration) and 1.0 mg/mL (for oral administration) for use. Administration routes: oral administration/intravenous administration. Amount and frequency of administration: 5 mL/kg for single administration.
Sample collection: blood was collected at the time points of 5 min, 15 min, 30 min, 1 h, 2 h, 4 h, 8 h and 24 h, about […] whole blood was collected from 3 animals at each time point. All of the animals were euthanized after the experiments.
Sample analysis: the collected samples were detected by LC-MS/MS, and the instrument model is SHIMADZU20A-API4000.
as §5

The target of the next data set is EGFR kinases (Homo sapiens, UniProt P00533). Nature of the data set: Reversible inhibition test of enzyme activity of EGFR kinases. The data set is classed as biochemical.

Where two headings read alike, the source gives them in different places. Some results are limits rather than exact numbers.

Sequence of HER2 (P04626 23-1255): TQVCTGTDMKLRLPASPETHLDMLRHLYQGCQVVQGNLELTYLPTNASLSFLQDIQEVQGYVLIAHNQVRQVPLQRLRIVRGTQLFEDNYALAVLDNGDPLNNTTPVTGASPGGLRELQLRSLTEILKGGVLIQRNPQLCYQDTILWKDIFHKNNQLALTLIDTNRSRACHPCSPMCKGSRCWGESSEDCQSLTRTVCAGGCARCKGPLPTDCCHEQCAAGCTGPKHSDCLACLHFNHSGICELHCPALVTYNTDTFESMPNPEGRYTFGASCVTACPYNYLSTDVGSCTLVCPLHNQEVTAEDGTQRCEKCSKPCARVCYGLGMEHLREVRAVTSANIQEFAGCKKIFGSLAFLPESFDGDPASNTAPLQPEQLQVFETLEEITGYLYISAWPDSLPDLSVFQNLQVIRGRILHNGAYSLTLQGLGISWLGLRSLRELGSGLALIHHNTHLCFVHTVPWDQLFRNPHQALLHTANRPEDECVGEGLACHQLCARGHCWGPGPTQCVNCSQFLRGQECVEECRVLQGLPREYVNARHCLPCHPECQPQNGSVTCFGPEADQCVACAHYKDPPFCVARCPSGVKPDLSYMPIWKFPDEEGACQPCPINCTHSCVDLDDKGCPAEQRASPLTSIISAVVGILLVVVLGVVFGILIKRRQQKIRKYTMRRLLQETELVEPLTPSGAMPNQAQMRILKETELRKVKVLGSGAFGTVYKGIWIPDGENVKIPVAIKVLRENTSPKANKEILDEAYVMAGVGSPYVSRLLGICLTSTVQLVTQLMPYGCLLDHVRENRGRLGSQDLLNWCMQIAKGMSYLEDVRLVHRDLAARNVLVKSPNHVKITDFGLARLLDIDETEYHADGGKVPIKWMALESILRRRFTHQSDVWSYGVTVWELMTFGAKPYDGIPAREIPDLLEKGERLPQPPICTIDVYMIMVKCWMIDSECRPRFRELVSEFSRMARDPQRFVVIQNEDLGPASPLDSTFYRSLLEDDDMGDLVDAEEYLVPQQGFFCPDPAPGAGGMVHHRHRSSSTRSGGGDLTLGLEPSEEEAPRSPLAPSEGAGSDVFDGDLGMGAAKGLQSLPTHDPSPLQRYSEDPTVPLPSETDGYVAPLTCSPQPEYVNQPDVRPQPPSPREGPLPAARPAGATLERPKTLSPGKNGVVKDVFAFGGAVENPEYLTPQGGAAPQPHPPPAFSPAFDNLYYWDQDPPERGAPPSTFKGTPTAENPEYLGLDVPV
Sequence of EGFR (P00533 25-1210): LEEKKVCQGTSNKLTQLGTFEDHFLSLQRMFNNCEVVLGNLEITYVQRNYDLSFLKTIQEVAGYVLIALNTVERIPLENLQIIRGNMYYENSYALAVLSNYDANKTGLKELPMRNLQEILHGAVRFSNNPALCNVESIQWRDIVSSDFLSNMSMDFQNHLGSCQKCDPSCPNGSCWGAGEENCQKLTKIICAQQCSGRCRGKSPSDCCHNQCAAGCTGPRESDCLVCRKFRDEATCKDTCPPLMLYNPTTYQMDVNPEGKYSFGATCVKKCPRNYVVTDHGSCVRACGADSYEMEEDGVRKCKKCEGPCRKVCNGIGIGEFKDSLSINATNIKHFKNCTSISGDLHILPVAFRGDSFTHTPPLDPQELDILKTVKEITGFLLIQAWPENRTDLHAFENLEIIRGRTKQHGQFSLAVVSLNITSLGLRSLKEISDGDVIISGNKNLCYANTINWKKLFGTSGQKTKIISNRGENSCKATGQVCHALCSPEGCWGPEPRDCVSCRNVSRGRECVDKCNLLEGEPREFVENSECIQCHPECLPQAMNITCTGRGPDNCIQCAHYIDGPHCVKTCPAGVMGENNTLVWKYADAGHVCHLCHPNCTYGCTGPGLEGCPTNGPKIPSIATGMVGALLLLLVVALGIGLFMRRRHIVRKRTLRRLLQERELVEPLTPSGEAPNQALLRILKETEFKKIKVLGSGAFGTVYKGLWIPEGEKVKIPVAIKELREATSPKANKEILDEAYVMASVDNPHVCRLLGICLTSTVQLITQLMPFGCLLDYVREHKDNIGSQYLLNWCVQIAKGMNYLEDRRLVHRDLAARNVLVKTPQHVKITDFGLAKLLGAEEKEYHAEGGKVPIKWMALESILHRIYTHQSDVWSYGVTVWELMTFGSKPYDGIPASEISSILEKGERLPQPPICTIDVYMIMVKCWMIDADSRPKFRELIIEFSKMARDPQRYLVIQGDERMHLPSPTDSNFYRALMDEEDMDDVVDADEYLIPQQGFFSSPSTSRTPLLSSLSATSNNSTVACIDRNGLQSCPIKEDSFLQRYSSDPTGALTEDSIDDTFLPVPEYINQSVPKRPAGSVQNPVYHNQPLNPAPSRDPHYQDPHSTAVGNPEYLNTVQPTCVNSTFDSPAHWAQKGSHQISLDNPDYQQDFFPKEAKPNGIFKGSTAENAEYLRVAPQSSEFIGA
Sequence of EGFR kinases (P00533 25-1210): as above

On to `CN(C)C/C=C/C(=O)Nc1cc2c(Nc3ccc(F)c(Cl)c3)ncnc2cc1O[C@H]1CCOC1` [Afatinib, reference compound], for which the toxicity reaction entry in [1] (rat, in vivo, 10 mg/kg) was “very significant toxicity reaction”; in data set [1] (rats, 5 mg/kg, 28 days) it was “significant toxicity reaction”; in data set [2] it was “toxicity reactions”. For the same compound, the “weight during recovery phase after drug withdrawal” value in [1] (rat, in vivo, 10 mg/kg) is “reduced weight during the recovery phase”.

The IC50 is the point on the concentration scale where inhibition reaches its midpoint. As a reminder, the AUC(0-inf) is total exposure, with the tail of the curve extrapolated. High values mean high exposure, low ones low exposure. The term AUC(0-t) denotes exposure summed from dosing to a finite time, without extrapolation to infinity. A high value points to more exposure. In general, MRT inf refers to the average time that molecules of a dose stay in the body. What is called clearance is the volume of plasma or blood freed of the substance per unit of time. Lower therefore signals a low capacity for elimination. As a reminder, the Cmax is the maximum level reached in the sampled fluid or tissue. The term Tmax denotes the time from dosing to the highest level. With `COc1cc2ncnc(Nc3ccc(F)c(Cl)c3)c2cc1NC(=O)/C=C/CN(C)Cc1ccccc1` [Compound Ic], the IC50 in the data set on A549 was above 10 µM; in the data set with MDA-MB-231, 13.9 µM; in the data set on H1975, 0.715 µM; in the data set with H1734, 5.26 µM; with SK-Br-3, 0.418 µM; in the data set with H292, 0.727 µM. Moreover, the IC50 with BT474 is 0.278 µM; with H1650 it was above 10 µM; in the data set on A431 it was 13 µM; with HCC827, 0.012 µM; on EGFR, 1.3 nM; at HER2, 15 nM. For the same compound, the AUC(0-inf) in data set [3] (1 mg/kg Intravenous Injection) amounted to 0.206 µg·h/mL. The AUC(0-t) in [3] (1 mg/kg Intravenous Injection) was determined as 0.163 µg·h/mL; in data set [3] (5 mg/kg Oral Administration) it was 0.283 µg·h/mL. Besides, in [3] (1 mg/kg Intravenous Injection), the MRT inf was 3.01 h. The compound also gave a clearance in [3] (1 mg/kg Intravenous Injection) of 5.23 L/h/kg. In addition, the half-life in data set [3] (1 mg/kg Intravenous Injection) was 2.63 h. In [3] (1 mg/kg Intravenous Injection), the Vd was determined as 14.7 L/kg. In data set [3] (5 mg/kg Oral Administration), this compound showed a Cmax of 0.0667 µg/mL. The Tmax in data set [3] (5 mg/kg Oral Administration) was determined as 2 h.

In the case of `COc1cc2ncnc(Nc3ccc(F)c(Cl)c3)c2cc1NC(=O)/C=C/c1ccccn1` [Compound Id], the concentration for half-maximal inhibition (IC50) in the data set with SK-Br-3 is 0.155 µM; in the data set on H292, 44.1 µM; in the data set on BT474, 2.14 µM; in the data set with HCC827, 0.04 µM; at EGFR, 5.1 nM; on HER2 it was above 10000 nM.

Consider `O=C(/C=C/c1ccccn1)Nc1cc2c(Nc3ccc(F)c(Cl)c3)ncnc2cc1OC1CCOC1` (stereo not drawn) [Compound Ib], for which the IC50 with MDA-MB-231 came to 4.01 µM; in the data set with H1975, 30.8 µM; with SK-Br-3, 3.1 µM; in the data set on H292, 0.502 µM; in the data set with BT474 it was 3.18 µM; in the data set with A431 it was 0.899 µM. In addition, the IC50 in the data set on HCC827 is 0.157 µM; on EGFR it was 3.9 nM; on HER2, 90 nM.

Regarding `CN(C/C=C/C(=O)Nc1cc2c(Nc3ccc(F)c(Cl)c3)ncnc2cc1OC1CCOC1)Cc1ccccc1` (stereo not drawn) [Compound Ia], the IC50 in the data set on A549 worked out at 5.93 µM; in the data set with H1975, 0.882 µM; in the data set with H1734, 1.34 µM; in the data set on SK-Br-3, 0.42 µM; in the data set on H292, 0.873 µM; in the data set with BT474, 0.264 µM. In addition, the IC50 in the data set with H1650 came out at 6.57 µM; in the data set on A431, 4.91 µM; in the data set on HCC827 it was 0.015 µM; at EGFR, 2 nM; on HER2, 13 nM. Moreover, at EGFR kinases, the “reversibility of inhibition of EGFR kinases” value was “irreversibility”. Besides, the values for the AUC(0-inf) in data set [3] (1 mg/kg Intravenous Injection) and in data set [3] (5 mg/kg Oral Administration) were 0.11 µg·h/mL and 0.14 µg·h/mL, respectively. Besides, the figures for the AUC(0-t) in data set [3] (1 mg/kg Intravenous Injection) and in data set [3] (5 mg/kg Oral Administration) were 0.104 µg·h/mL and 0.0914 µg·h/mL, respectively. The compound further registered an MRT inf in data set [3] (1 mg/kg Intravenous Injection) of 0.616 h. The compound further had a clearance in data set [3] (1 mg/kg Intravenous Injection) of 9.18 L/h/kg. Also, the half-life in [3] (1 mg/kg Intravenous Injection) is 0.729 h; in data set [3] (5 mg/kg Oral Administration), 1.76 h. The Vd in data set [3] (1 mg/kg Intravenous Injection) stood at 5.47 L/kg. The compound also displayed a Cmax in data set [3] (5 mg/kg Oral Administration) of 0.0314 µg/mL. Besides, in [3] (5 mg/kg Oral Administration), the Tmax was found to be 1.17 h.

Source of the values: patent publication US20150065709A1, “Aminoquinazoline Derivative And Use Thereof In Preparing Anti-Malignant Tumor Medicament” (METABOMICS, INC, priority 2012, published 2015).
